{"source": "PubChem BioAssay AID743396", "about": "(Broad Institute, 2014)", "note": "Activity calls are given as the source filed them.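 How the source made its calls: active means fitted curve reaches a 40% rise in fluorescent cells at or below the top valid dose; inactive means opposite-direction effect, or the rest.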", "data": [{"test": "compound fluorescence in GFP channel, mTEFS cells – imaging, mTEFS fibroblasts, cherry-pick, artefact control for X-chromosome reactivation project, dose response (AID 743396);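 further: raw share of Hoechst-counted cells scored GFP positive without control normalization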", "conditions": "mTEFS fibroblasts autofluorescence, GFP-channel imaging, 3 days; at 19.5 µM (top of the series)", "values": [{"smiles": "OCC[n+]1c2ccccc2nc2ccc(N3CCOCC3)cc21", "% fluorescent cells increase": "0% (inactive)"}, {"smiles": "O=[N+]([O-])c1ccc(O)c([N+](=O)[O-])c1", "% fluorescent cells increase": "0% (inactive)"}, {"smiles": "Cc1cc(=O)oc2cc3c(cc12)CCCN3", "% fluorescent cells increase": "0.269% (inactive)"}, {"smiles": "Cc1cc(/C=C2/C(=O)NC(=O)N(Cc3ccco3)C2=O)c(C)n1-c1ccccc1O", "% fluorescent cells increase": "0% (inactive)"}]}, {"test": "compound fluorescence in GFP channel, mTEFS cells – imaging, mTEFS fibroblasts, cherry-pick, artefact control for X-chromosome reactivation project, dose response (AID 743396)", "conditions": "mTEFS fibroblasts autofluorescence, GFP-channel imaging, 3 days; at 19.5 µM (top of the series); cells pretreated with 5-aza-dC", "values": [{"smiles": "COc1ccc(-c2nnc(NC(=O)c3ccc(F)cc3)o2)cc1", "% fluorescent cells increase": "0% (inactive)"}, {"smiles": "Cc1ccc2[nH]c(C)c(/C=C/c3cc[n+](C)cc3)c2c1", "% fluorescent cells increase": "8.78% (inactive)"}, {"smiles": "Nc1nnc(SCC(=O)c2ccc([N+](=O)[O-])cc2)s1", "% fluorescent cells increase": "-0.007% (inactive)"}, {"smiles": "CCCCC(=O)N(C)c1c(CC)nc2c(OCC(=O)c3ccc(F)cc3)cccn12", "% fluorescent cells increase": "3.76% (inactive)"}, {"smiles": "CCOc1ccc(C(Nc2cccnc2)c2cc(Cl)c3cccnc3c2O)cc1", "note": "(stereo not given)", "% fluorescent cells increase": "0% (inactive)"}, {"smiles": "CSc1ccc(CNCC2CCCO2)cc1", "note": "(stereo not given)", "% fluorescent cells increase": "0.293% (inactive)"}, {"smiles": "C[C@@H]1CN([C@@H](C)CO)C(=O)c2ccccc2-c2ccccc2CO[C@@H]1CN(C)C(=O)Nc1ccc2c(c1)OCO2", "% fluorescent cells increase": "-0.044% (inactive)"}, {"smiles": "Brc1cccc(CNCC2CCCO2)c1", "note": "(stereo not given)", "% fluorescent cells increase": "0.009% (inactive)"}, {"smiles": "Cc1ccccc1NC(=O)c1cn2c(nc3ccccc32)c(C#N)c1C", "% fluorescent cells increase": "2.44% (inactive)"}, {"smiles": "Nc1[nH]c(=O)nc(Nc2ccccc2)c1N=O", "% fluorescent cells increase": "0% (inactive)"}, {"smiles": "Cc1c(CN2CCCC(C(=O)c3cccc(OC(C)C)c3)C2)c(=O)n(-c2ccccc2)n1C", "note": "(stereo not given)", "% fluorescent cells increase": "0.037% (inactive)"}, {"smiles": "O=CNc1ccc2c(c1)Cc1cc([N+](=O)[O-])ccc1-2", "% fluorescent cells increase": "0.119% (inactive)"}, {"smiles": "C=CCn1c(=S)[nH]c2scc(-c3ccco3)c2c1=O", "% fluorescent cells increase": "0% (inactive)"}, {"smiles": "O=C(O)CSc1ncccn1", "% fluorescent cells increase": "0.143% (inactive)"}, {"smiles": "COC(=O)c1ccc(CNC(=O)COC(=O)c2cc(Cl)ccc2O)cc1", "% fluorescent cells increase": "0% (inactive)"}, {"smiles": "CC(=O)Nc1sc(N/N=C/c2ccc(N(C)C)cc2)nc1-c1ccc(C)cc1", "% fluorescent cells increase": "-0.004% (inactive)"}, {"smiles": "COc1cc(NC(C)CCc2ccccc2)cc(OC)c1OC", "note": "(stereo not given)", "% fluorescent cells increase": "0% (inactive)"}, {"smiles": "Cc1noc(C)c1S(=O)(=O)Nc1ccc2c(c1)C(=O)N([C@H](C)CO)C[C@H](C)[C@H](CN(C)C(=O)Nc1ccc(F)cc1)OCCCC[C@H](C)O2", "% fluorescent cells increase": "0% (inactive)"}, {"smiles": "CCOc1cccc(/C=N/NC(=S)Nc2cc(S(=O)(=O)N3CCOCC3)ccc2N2CCOCC2)c1O", "% fluorescent cells increase": "0% (inactive)"}, {"smiles": "Cc1ccc(Cn2ccsc2=NC(=O)CCl)cc1", "% fluorescent cells increase": "0% (inactive)"}, {"smiles": "O=[N+]([O-])c1c(Nc2ccc(O)cc2)cc(Cl)c2nonc12", "% fluorescent cells increase": "-0.006% (inactive)"}, {"smiles": "Oc1ccc(Cl)cc1C=Nc1ccc2c3c(cccc13)CC2", "% fluorescent cells increase": "0.216% (inactive)"}, {"smiles": "Cc1ccc(S(=O)(=O)Nc2ccc3c(c2)C(=O)N([C@@H](C)CO)C[C@@H](C)[C@@H](CN(C)Cc2ccc(C(=O)Nc4ccccc4N)cc2)O3)cc1", "% fluorescent cells increase": "0% (inactive)"}, {"smiles": "CCOC(=O)C1CCN(C(=O)c2ccc(NS(=O)(=O)c3ccc(F)cc3C)cc2)CC1", "% fluorescent cells increase": "0% (inactive)"}, {"smiles": "COC(=O)C(C(C)C)N1CCc2c(C)nc3c(C#N)cnn3c21", "note": "(stereo not given)", "% fluorescent cells increase": "0.064% (inactive)"}, {"smiles": "O=c1c(Cl)c(Cl)cnn1Cc1nnc(-c2ccccc2Br)o1", "% fluorescent cells increase": "-0.006% (inactive)"}, {"smiles": "COc1cc(/C=C(\\C#N)c2nc3ccccc3o2)ccc1O", "% fluorescent cells increase": "2.54% (inactive)"}, {"smiles": "O=C1CCCC(O)=C1Sc1cc(Cl)c(Cl)cc1Cl", "% fluorescent cells increase": "0% (inactive)"}, {"smiles": "CCCCOc1nc2ccccc2nc1NS(=O)(=O)c1ccc(F)cc1", "% fluorescent cells increase": "0% (inactive)"}, {"smiles": "COC(C(=O)NCc1ccc(C)cc1)c1ccccc1", "note": "(stereo not given)", "% fluorescent cells increase": "0% (inactive)"}, {"smiles": "COc1ccc(NC(=O)Nc2ccc3c(c2)C(=O)N([C@H](C)CO)C[C@H](C)[C@H](CN(C)Cc2ccc4c(c2)OCO4)O3)cc1", "% fluorescent cells increase": "-0.166% (inactive)"}, {"smiles": "CC(C)NC(=O)N(C)C[C@@H]1OCCCC[C@H](C)Oc2ccc(NC(=O)Nc3ccc(C(F)(F)F)cc3)cc2C(=O)N([C@H](C)CO)C[C@@H]1C", "% fluorescent cells increase": "0% (inactive)"}, {"smiles": "O=C1c2ccccc2C(=Cc2cccnc2)c2ccccc21", "% fluorescent cells increase": "0.125% (inactive)"}, {"smiles": "O=C(N/N=C/c1ccc(O)c2ncccc12)c1cccc(Br)c1", "% fluorescent cells increase": "-0.003% (inactive)"}, {"smiles": "O=C(O)/C=C/C(=O)Nc1ccc(-n2nccc2C(F)(F)F)cc1", "% fluorescent cells increase": "1.85% (inactive)"}, {"smiles": "COc1ccc2c(c1)c(/C=N/Nc1nc3ccccc3[nH]1)c(C)n2C", "% fluorescent cells increase": "3.71% (inactive)"}, {"smiles": "CCCCNc1nc2c(-c3ccccc3)nnn2c2ccccc12", "% fluorescent cells increase": "0.006% (inactive)"}, {"smiles": "NNc1nc2c(-c3ccc(F)cc3)nnn2c2ccccc12", "% fluorescent cells increase": "0.008% (inactive)"}, {"smiles": "O=c1c2cc(-c3ccccc3)sc2nc2n1N=C(c1ccccc1)CS2", "% fluorescent cells increase": "1.14% (inactive)"}, {"smiles": "CCc1ccc(CN(C)C(=O)c2cc(S(=O)(=O)N3CCOCC3)ccc2N2CCCC2)cc1", "% fluorescent cells increase": "0.027% (inactive)"}, {"smiles": "COc1ccccc1/C=C/C(=O)OCC(=O)NC(=O)NC1CCCC1", "% fluorescent cells increase": "0% (inactive)"}, {"smiles": "CC1CN(Cc2c(O)ccc3c2oc(=O)c2ccccc23)CC(C)O1", "note": "(stereo not given)", "% fluorescent cells increase": "0.279% (inactive)"}, {"smiles": "Cc1noc(C)c1NC(=O)N[C@H]1CC[C@H](CC(=O)N2CCN(C)CC2)O[C@H]1CO", "% fluorescent cells increase": "0.024% (inactive)"}, {"smiles": "Cc1ccc(C(=O)NCc2ccccn2)cc1NC1=NC2CS(=O)(=O)CC2S1", "note": "(stereo not given)", "% fluorescent cells increase": "0.061% (inactive)"}, {"smiles": "CC(C)OC(=O)/C(=C\\c1cccnc1)NC(=O)c1ccccc1", "% fluorescent cells increase": "0.013% (inactive)"}, {"smiles": "COCCNC(=O)CSc1nc2scc(-c3ccccc3)c2c(=O)[nH]1", "% fluorescent cells increase": "0.106% (inactive)"}, {"smiles": "CN1OC[C@@H]2CN(Cc3ccccc3)[C@H](c3cccc(N4CCOCC4)c3)C[C@@H]21", "% fluorescent cells increase": "0.013% (inactive)"}, {"smiles": "C[C@@H]1CN([C@H](C)CO)C(=O)c2cc(NS(=O)(=O)c3ccc(F)cc3)ccc2O[C@@H](C)CCCCO[C@@H]1CN(C)Cc1ccc2c(c1)OCO2", "% fluorescent cells increase": "0% (inactive)"}, {"smiles": "CCCCn1nnnc1C(c1ccccc1)N1CCN(c2ccc(C)cc2)CC1", "note": "(stereo not given)", "% fluorescent cells increase": "-0.003% (inactive)"}, {"smiles": "O=[N+]([O-])/C=C/c1ccc2c(ccn2Cc2ccccc2)c1", "% fluorescent cells increase": "0% (inactive)"}, {"smiles": "COc1ccc(-c2ccc(C(=O)NCc3cccs3)c3occc23)c(C)c1", "% fluorescent cells increase": "0.07% (inactive)"}, {"smiles": "COc1ccc2c3c(n(C)c2c1)[C@@H](CO)N(Cc1ccccc1OC)CC31CCN(C)CC1", "% fluorescent cells increase": "-0.158% (inactive)"}, {"smiles": "CC1CCN(C(=O)Cn2nnc(-c3ccccc3)n2)CC1", "% fluorescent cells increase": "0.009% (inactive)"}, {"smiles": "C[C@H](CO)N1C[C@H](C)[C@H](CN(C)Cc2ccccc2)Oc2ccc(NS(C)(=O)=O)cc2C1=O", "% fluorescent cells increase": "0.123% (inactive)"}, {"smiles": "O=C(NNC(=O)c1ccccc1Cl)c1ccccc1Cl", "% fluorescent cells increase": "0.057% (inactive)"}, {"smiles": "COc1cc(/C=N/Nc2nc(N3CCCC3)nc(N3CCCC3)n2)ccc1OCc1ccccc1F", "% fluorescent cells increase": "0.025% (inactive)"}, {"smiles": "NNC(=O)c1sc(-c2ccccc2)cc1N", "% fluorescent cells increase": "1.36% (inactive)"}, {"smiles": "CC(=O)c1ccc2c(c1)OCCOCCOCCOCCOCCO2", "% fluorescent cells increase": "0.551% (inactive)"}, {"smiles": "CC(=NNc1ccc2ccccc2n1)c1ccccn1", "% fluorescent cells increase": "15.8% (inactive)"}, {"smiles": "C=CCn1c(SCC(=O)N(CC)C2CCS(=O)(=O)C2)nc2sc3c(c2c1=O)CCC3", "note": "(stereo not given)", "% fluorescent cells increase": "0.034% (inactive)"}, {"smiles": "COc1ccc(N=Nc2ccc(O)c(P(=O)(c3ccccc3)c3ccccc3)c2)cc1", "% fluorescent cells increase": "0% (inactive)"}, {"smiles": "CCCNNC(=O)C(O)(c1ccccc1)c1ccccc1", "% fluorescent cells increase": "0.02% (inactive)"}, {"smiles": "CO[C@H]1CN(C)C(=O)c2ccc(NC(=O)C3CCCCC3)cc2OC[C@H](C)NC[C@@H]1C", "% fluorescent cells increase": "0.009% (inactive)"}, {"smiles": "CC(=O)Nc1ccc(S(=O)(=O)N(C)c2ccc(OCC(=O)NCCc3ccccc3F)cc2)cc1", "% fluorescent cells increase": "0.014% (inactive)"}, {"smiles": "COc1ccc(Cc2c(O)nc(SCC(=O)NC34CC5CC(CC(C5)C3)C4)[nH]c2=O)cc1", "% fluorescent cells increase": "0.014% (inactive)"}, {"smiles": "COc1cc(/C=C/C(=O)c2ccc([N+](=O)[O-])o2)ccc1O", "% fluorescent cells increase": "5.15% (inactive)"}, {"smiles": "CCCN(C(=O)c1ccc(-n2cncn2)c([N+](=O)[O-])c1)C1CCS(=O)(=O)C1", "note": "(stereo not given)", "% fluorescent cells increase": "0.034% (inactive)"}, {"smiles": "CCSc1nnc(NC(=O)c2cc(OC)c(OC)c(OC)c2)s1", "% fluorescent cells increase": "0% (inactive)"}, {"smiles": "O=C(CC1C(=O)Nc2ccccc2N1CC(=O)N1CCCC1)Nc1ccc(Br)cc1", "note": "(stereo not given)", "% fluorescent cells increase": "0% (inactive)"}, {"smiles": "COc1ccc2nc(SCC(=O)Nc3ccccc3OC)[nH]c2c1", "% fluorescent cells increase": "0.385% (inactive)"}, {"smiles": "C/C=C/Cn1c(SCCCc2ccccc2)nc2c1c(=O)[nH]c(=O)n2C", "% fluorescent cells increase": "-0.004% (inactive)"}, {"smiles": "O=C(CC1CC1)N1CC(=O)N2[C@@H](CO)[C@H](c3ccc(C#Cc4ccc(F)cc4)cc3)[C@@H]2C1", "% fluorescent cells increase": "-0.043% (inactive)"}, {"smiles": "CNC(=O)C[C@H]1C(=O)N(c2ccccc2)C[C@@H]1C", "% fluorescent cells increase": "0% (inactive)"}, {"smiles": "O=C(COC(=O)COc1cccc(C(F)(F)F)c1)NC1CCS(=O)(=O)C1", "note": "(stereo not given)", "% fluorescent cells increase": "0.015% (inactive)"}, {"smiles": "C=CCN(CC(O)c1cccc([N+](=O)[O-])c1)C(C)CCc1ccccc1", "note": "(stereo not given)", "% fluorescent cells increase": "1.4% (inactive)"}, {"smiles": "C[C@H](NC(=O)C[C@H]1CC[C@@H](NC(=O)Cc2ccccn2)[C@@H](CO)O1)c1ccccc1", "% fluorescent cells increase": "0.008% (inactive)"}, {"smiles": "Cc1ccc(S(=O)(=O)N2CCN(C(=O)COC(=O)c3ccccc3OC(F)F)CC2)c(C)c1", "% fluorescent cells increase": "0% (inactive)"}, {"smiles": "CCCNC(=O)N1CC2(CN(S(C)(=O)=O)C2)c2c(n(C)c3cc(OC)ccc23)[C@H]1CO", "% fluorescent cells increase": "0.032% (inactive)"}, {"smiles": "Nc1ccccc1Sc1ccc(C(F)(F)F)cc1[N+](=O)[O-]", "% fluorescent cells increase": "0% (inactive)"}, {"smiles": "COc1ccccc1OCCOc1ccc(/C=C2\\C(=N)N3N=C(S(C)(=O)=O)SC3=NC2=O)cc1", "% fluorescent cells increase": "0% (inactive)"}, {"smiles": "C[C@@H]1CN([C@@H](C)CO)C(=O)c2cc(NS(=O)(=O)c3ccccc3)ccc2O[C@@H](C)CCCCO[C@@H]1CN(C)Cc1ccc2c(c1)OCO2", "% fluorescent cells increase": "0% (inactive)"}]}]}
